Results from publication PMC10443802, “Targeting a xenobiotic transporter to ameliorate vincristine-induced sensory neuropathy” (JCI Insight, 2023).
Several values for one entry are separate records, joined by “and”; a condition that tells them apart may be missing. Equal values may be shown once.

Molecular target: hOAT1 (Homo sapiens, UniProt Q4U2R8)
Test: Vincristine uptake screen, HeLa cells overexpressing hOAT1
Format: in vitro ADME
Method: Relative uptake is expressed as percentage change compared with empty vector controls (n = 4–14 per group). […] Human OATP1B1 and OATP1B3 transporter–overexpressed cells were used as positive controls; empty vector controls were used as the negative control. […] Mechanical allodynia (C), thermal hyperalgesia (D), and sciatic nerve maximal action potential amplitudes (E) are expressed as percentage change relative to baseline values (n = 6–8 per group). Statistical analysis was performed using a 2-way ANOVA with Bonferroni’s post hoc test. **P < 0.01, ***P < 0.001, ****P < 0.0001, compared with baseline values. […] Data are shown as mean ± SEM. […]
transfected with transporters of interest, including hOAT1, hOAT3, hOAT4, hOATP1A2, hOATP3A1, hOATP4A1, hOATP5A1, hOATP1C1, hOATP1B1, hOATP1B3, hOATP2B1, hOCT1, hOCT2, hOCTN1, hOCTN2, hASBT, hNTCP, hNPT1, hMATE1, hOSTα/β, hPEPT1, hPEPT2, rOatp1a1, rOatp1a4, rOatp1a5, rOatp1b2, rNtcp, rAsbt, rOat1, and rOct1. Cells were transfected with expression plasmid or vector control lacking any insert using Lipofectin reagent (Invitrogen). […] The cellular radioactivity was quantified by liquid scintillation counting as described above. […]
Samples were analyzed using real-time quantitative PCR and Taqman Probes (Applied Biosystems). The relative gene expression was determined using the ΔΔCt method, and normalized to the mouse or human housekeeping gene, GAPDH. […]

hOAT1, sequence (Q4U2R8 whole entry): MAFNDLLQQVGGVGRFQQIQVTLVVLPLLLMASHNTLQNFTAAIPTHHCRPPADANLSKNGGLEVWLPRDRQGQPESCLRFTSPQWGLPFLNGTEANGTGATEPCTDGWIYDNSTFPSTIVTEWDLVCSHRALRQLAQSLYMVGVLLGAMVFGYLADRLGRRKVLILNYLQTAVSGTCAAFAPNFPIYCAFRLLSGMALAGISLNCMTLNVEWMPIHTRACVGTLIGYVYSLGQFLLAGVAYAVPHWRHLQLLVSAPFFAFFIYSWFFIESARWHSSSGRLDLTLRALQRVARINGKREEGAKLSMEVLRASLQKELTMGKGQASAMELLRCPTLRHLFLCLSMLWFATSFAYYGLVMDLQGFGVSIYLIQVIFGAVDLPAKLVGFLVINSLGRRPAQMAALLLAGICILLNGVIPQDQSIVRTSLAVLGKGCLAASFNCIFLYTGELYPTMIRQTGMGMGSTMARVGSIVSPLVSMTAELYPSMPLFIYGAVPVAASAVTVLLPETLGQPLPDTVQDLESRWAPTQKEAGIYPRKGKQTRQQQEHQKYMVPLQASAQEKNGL

## CC[C@]1(O)C[C@H]2CN(CCc3c([nH]c4ccccc34)[C@@](C(=O)OC)(c3cc4c(cc3OC)N(C=O)[C@H]3[C@@](O)(C(=O)OC)[C@H](OC(C)=O)[C@]5(CC)C=CCN6CC[C@]43[C@@H]65)C2)C1 [Vincristine, vincristine]
  Vincristine uptake (% of vector control): 127.00 % of vector control and 112.00 % of vector control and 76.00 % of vector control and 98.00 % of vector control and 129.00 % of vector control and 120.00 % of vector control and 111.00 % of vector control and 117.00 % of vector control
